In PubChem BioAssay (NCI):
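Test compounds were applied to cells in 96-well plates for 48 hours at 5 doses. Definition used: TGI = concentration required for complete inhibition of growth.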

Assays:
Experiment in all cases: NCI anticancer screen, dose series, 48 h
NCI-H522 lung = tested on: NCI-H522 lung
PC-3 prostate = tested on: PC-3 prostate
DU-145 prostate = tested on: DU-145 prostate
EKVX NSCLC = tested on: EKVX NSCLC
SW-620 colon = tested on: SW-620 colon
SF-268 CNS = tested on: SF-268 CNS
UO-31 renal = tested on: UO-31 renal
A549 NSCLC = tested on: A549 NSCLC
COLO 205 colon = tested on: COLO 205 colon
HCT-116 colon = tested on: HCT-116 colon
OVCAR-8 ovarian = tested on: OVCAR-8 ovarian
SNB-75 CNS = tested on: SNB-75 CNS
MDA-N = tested on: MDA-N
HCC-2998 colon = tested on: HCC-2998 colon
OVCAR-3 ovarian = tested on: OVCAR-3 ovarian
IGROV1 ovarian = tested on: IGROV1 ovarian
NCI/ADR-RES ovarian = tested on: NCI/ADR-RES ovarian
M14 melanoma = tested on: M14 melanoma
OVCAR-4 ovarian = tested on: OVCAR-4 ovarian
NCI-H23 lung = tested on: NCI-H23 lung
MDA-MB-231 breast = tested on: MDA-MB-231 breast
OVCAR-5 ovarian = tested on: OVCAR-5 ovarian
CAKI-1 renal = tested on: CAKI-1 renal
HCT-15 colon = tested on: HCT-15 colon
SK-MEL-5 melanoma = tested on: SK-MEL-5 melanoma
SNB-19 CNS = tested on: SNB-19 CNS
UACC-257 melanoma = tested on: UACC-257 melanoma
UACC-62 melanoma = tested on: UACC-62 melanoma
ACHN renal = tested on: ACHN renal
SK-OV-3 ovarian = tested on: SK-OV-3 ovarian
SF-295 CNS = tested on: SF-295 CNS
HS 578T breast = tested on: HS 578T breast
786-0 renal = tested on: 786-0 renal
HL-60(TB) leukemia = tested on: HL-60(TB) leukemia
SN12C renal = tested on: SN12C renal
NCI-H226 lung = tested on: NCI-H226 lung
NCI-H460 lung = tested on: NCI-H460 lung
KM12 colon = tested on: KM12 colon
SK-MEL-28 melanoma = tested on: SK-MEL-28 melanoma
LOX IMVI melanoma = tested on: LOX IMVI melanoma
RPMI-8226 leukemia = tested on: RPMI-8226 leukemia
CCRF-CEM leukemia = tested on: CCRF-CEM leukemia
SF-539 CNS = tested on: SF-539 CNS
T-47D breast = tested on: T-47D breast
BT-549 breast = tested on: BT-549 breast
U251 CNS = tested on: U251 CNS
MCF7 breast = tested on: MCF7 breast
MALME-3M melanoma = tested on: MALME-3M melanoma
TK-10 renal = tested on: TK-10 renal
A498 renal = tested on: A498 renal
HT29 colon = tested on: HT29 colon
RXF 393 renal = tested on: RXF 393 renal
HOP-92 NSCLC = tested on: HOP-92 NSCLC
SK-MEL-2 melanoma = tested on: SK-MEL-2 melanoma
MOLT-4 leukemia = tested on: MOLT-4 leukemia
HOP-62 NSCLC = tested on: HOP-62 NSCLC
MDA-MB-435 = tested on: MDA-MB-435
K-562 leukemia = tested on: K-562 leukemia

Q: Which results are given for CC(C)(C)NC(=O)N1N=C(c2ccccc2)C1c1ccccc1 (configuration not stated)?
A: TGI (NCI-H522 lung): 35.5 µM; TGI (PC-3 prostate): 56.5 µM; TGI (DU-145 prostate): > 100 µM; TGI (EKVX NSCLC): > 100 µM; TGI (SW-620 colon): > 100 µM; TGI (SF-268 CNS): > 100 µM; TGI (UO-31 renal): 63.1 µM; TGI (A549 NSCLC): > 100 µM; TGI (COLO 205 colon): > 100 µM; TGI (HCT-116 colon): 52.8 µM; TGI (OVCAR-8 ovarian): > 100 µM; TGI (SNB-75 CNS): > 100 µM; TGI (MDA-N): > 100 µM; TGI (HCC-2998 colon): > 100 µM; TGI (OVCAR-3 ovarian): 50.3 µM; TGI (IGROV1 ovarian): > 100 µM; TGI (NCI/ADR-RES ovarian): > 100 µM; TGI (M14 melanoma): > 100 µM; TGI (OVCAR-4 ovarian): > 100 µM; TGI (NCI-H23 lung): > 100 µM; TGI (MDA-MB-231 breast): > 100 µM; TGI (OVCAR-5 ovarian): > 100 µM; TGI (CAKI-1 renal): 59.1 µM; TGI (HCT-15 colon): 75.2 µM; TGI (SK-MEL-5 melanoma): 47 µM; TGI (SNB-19 CNS): > 100 µM; TGI (UACC-257 melanoma): > 100 µM; TGI (UACC-62 melanoma): > 100 µM; TGI (ACHN renal): > 100 µM; TGI (SK-OV-3 ovarian): > 100 µM; TGI (SF-295 CNS): > 100 µM; TGI (HS 578T breast): > 100 µM; TGI (786-0 renal): 32 µM; TGI (HL-60(TB) leukemia): > 100 µM; TGI (SN12C renal): > 100 µM; TGI (NCI-H226 lung): > 100 µM; TGI (NCI-H460 lung): > 100 µM; TGI (KM12 colon): > 100 µM; TGI (SK-MEL-28 melanoma): > 100 µM; TGI (LOX IMVI melanoma): > 100 µM; TGI (RPMI-8226 leukemia): 46 µM; TGI (CCRF-CEM leukemia): > 100 µM; TGI (SF-539 CNS): 41.4 µM; TGI (T-47D breast): > 100 µM; TGI (BT-549 breast): > 100 µM; TGI (U251 CNS): > 100 µM; TGI (MCF7 breast): > 100 µM; TGI (MALME-3M melanoma): 45.6 µM; TGI (TK-10 renal): > 100 µM; TGI (A498 renal): > 100 µM; TGI (HT29 colon): 32.2 µM; TGI (RXF 393 renal): 36.6 µM; TGI (HOP-92 NSCLC): 65 µM

Q: Which results are given for CC(C)C[C@H]1[C@@H](OCc2ccccc2)COS(=O)N1[C@H](C)c1ccccc1 (some centres not stated)?
A: TGI (NCI-H522 lung): 30.4 µM; TGI (PC-3 prostate): > 100 µM; TGI (DU-145 prostate): > 100 µM; TGI (EKVX NSCLC): > 100 µM; TGI (SW-620 colon): > 100 µM; TGI (SF-268 CNS): > 100 µM; TGI (UO-31 renal): > 100 µM; TGI (A549 NSCLC): > 100 µM; TGI (COLO 205 colon): 30.4 µM; TGI (SK-MEL-2 melanoma): 36.1 µM; TGI (HCT-116 colon): 19 µM; TGI (OVCAR-8 ovarian): > 100 µM; TGI (SNB-75 CNS): > 100 µM; TGI (MDA-N): > 100 µM; TGI (OVCAR-3 ovarian): 26 µM; TGI (IGROV1 ovarian): > 100 µM; TGI (NCI/ADR-RES ovarian): > 100 µM; TGI (M14 melanoma): 29.5 µM; TGI (NCI-H23 lung): > 100 µM; TGI (MDA-MB-231 breast): 65.2 µM; TGI (OVCAR-5 ovarian): > 100 µM; TGI (CAKI-1 renal): 95.6 µM; TGI (HCT-15 colon): > 100 µM; TGI (MOLT-4 leukemia): 51.3 µM; TGI (HOP-62 NSCLC): 67.4 µM; TGI (SK-MEL-5 melanoma): 23.3 µM; TGI (SNB-19 CNS): > 100 µM; TGI (UACC-257 melanoma): > 100 µM; TGI (UACC-62 melanoma): > 100 µM; TGI (ACHN renal): > 100 µM; TGI (SK-OV-3 ovarian): 78 µM; TGI (SF-295 CNS): 34.3 µM; TGI (HS 578T breast): 38.6 µM; TGI (786-0 renal): 36.1 µM; TGI (HL-60(TB) leukemia): 51.7 µM; TGI (SN12C renal): 40.1 µM; TGI (NCI-H226 lung): 36 µM; TGI (NCI-H460 lung): 47.8 µM; TGI (KM12 colon): 40.9 µM; TGI (SK-MEL-28 melanoma): > 100 µM; TGI (LOX IMVI melanoma): 28.2 µM; TGI (RPMI-8226 leukemia): 58.4 µM; TGI (CCRF-CEM leukemia): 36.4 µM; TGI (MDA-MB-435): > 100 µM; TGI (T-47D breast): > 100 µM; TGI (BT-549 breast): > 100 µM; TGI (U251 CNS): 36.5 µM; TGI (MALME-3M melanoma): 48.3 µM; TGI (TK-10 renal): > 100 µM; TGI (A498 renal): 87.2 µM; TGI (HT29 colon): 49.3 µM; TGI (K-562 leukemia): 35.9 µM; TGI (RXF 393 renal): 32.1 µM; TGI (HOP-92 NSCLC): > 100 µM
